Assay results published in patent publication US20050033056A1, “Hydroxylated indole derivatives and uses thereof” (priority 2001, published 2005).

Experiments:
CYP2D6 = CYP2D6 (Homo sapiens, UniProt P10635); assay: Compound 1 metabolism / metabolite formation by recombinant CYP2D6; type: in vitro ADME; set-up: purchased Gentest Corp. (Woburn, Mass.); host or cells: insect cells (microsomal preparation)
Experimental: (§1) The metabolism of Compound 1 was determined by the disappearance of Compound 1 or the appearance of Compound 1 metabolites in reaction mixtures as compared to respective controls. Compound 1 was incubated in the reconstituted in vitro reaction systems containing pooled human liver S9 fractions, microsomal preparations, or recombinant hepatic CYP forms, including CYP1A2, CYP2C9, CYP2C19, CYP2D6, CYP2E1, and CYP3A4. The reaction mixture (total volume of 250 μL) contained 0.5 mg of liver microsomal protein, 50 or 25 pmol of recombinant CYP, and Compound 1 (50-80 μM) in 50 mM Tris buffer containing 15 mM MgCl2 (pH 7.4). After incubating at 37° C. with gentle shaking for 1 minute, the reaction was initiated by adding 25 μL of NADPH solution (20 mg/mL), and was carried out for 1 hour. The reaction was terminated by quickly cooling the test tube on ice, followed by the addition of an equal volume of 100% methanol. The samples were centrifuged in a desktop centrifuge at 14,000 rpm for 5 minutes, and the supernatants were filtered through syringe filters (13 mm, 0.45 μm). The filtrates were subjected to analysis using LC/MS (ion trap) or LC/MS/MS.
(§2) 1. LC/MS (LCQ ion trap mass spectrometer, Finnigan Corp., San Jose, Calif.): Hewlett Packard 1100 HPLC system (Waldbronn, Germany) consisted of a binary pump, an autosampler, a column compartment unit, and an online variable wavelength UV detector (VWD). The detector was monitored at 270 nm, which is the UVmax of Compound 1 predetermined by scanning between 225-400 nm using a photodiode array detector (PDA). The metabolites were separated on a Hewlett Packard Eclipse C18 column (150×2.1 mm). The mobile phases were 10 nmM ammonium acetate at pH 4.8 (A) and acetonitrile (B). The gradient (B) was 10% (0-6 minutes), 22% (12-22 minutes), 90% (25-30 minutes), and 10% (31 minutes and after). The flow rate was 0.25 mL/minute. Software Navigator (Version 1.2, Finnigan Corp.) was used to control the HPLC and MS and to acquire the data. […]

CYP3A4 = CYP3A4 (Homo sapiens, UniProt P08684); assay: Compound 1 metabolism / metabolite formation by recombinant CYP3A4; type: in vitro ADME; set-up: purchased Gentest Corp. (Woburn, Mass.); host or cells: insect cells (microsomal preparation)
Experimental: as §1, §2

[1] = approximately 50 μM of Compound 1

Sequence of CYP2D6 (P10635 whole entry): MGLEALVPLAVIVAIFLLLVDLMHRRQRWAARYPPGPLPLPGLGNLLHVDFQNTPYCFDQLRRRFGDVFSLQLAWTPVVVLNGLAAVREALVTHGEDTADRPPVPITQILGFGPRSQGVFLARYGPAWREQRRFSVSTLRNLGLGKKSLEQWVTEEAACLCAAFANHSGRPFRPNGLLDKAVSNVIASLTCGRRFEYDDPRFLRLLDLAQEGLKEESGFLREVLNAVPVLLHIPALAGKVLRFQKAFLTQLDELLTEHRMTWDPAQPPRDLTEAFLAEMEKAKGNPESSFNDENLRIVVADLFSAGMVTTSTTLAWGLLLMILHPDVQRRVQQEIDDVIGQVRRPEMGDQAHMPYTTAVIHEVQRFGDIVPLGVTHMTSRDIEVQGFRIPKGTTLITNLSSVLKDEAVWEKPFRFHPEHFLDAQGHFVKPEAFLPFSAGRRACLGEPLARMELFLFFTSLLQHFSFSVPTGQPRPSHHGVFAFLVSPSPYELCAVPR
Sequence of CYP3A4 (P08684 whole entry): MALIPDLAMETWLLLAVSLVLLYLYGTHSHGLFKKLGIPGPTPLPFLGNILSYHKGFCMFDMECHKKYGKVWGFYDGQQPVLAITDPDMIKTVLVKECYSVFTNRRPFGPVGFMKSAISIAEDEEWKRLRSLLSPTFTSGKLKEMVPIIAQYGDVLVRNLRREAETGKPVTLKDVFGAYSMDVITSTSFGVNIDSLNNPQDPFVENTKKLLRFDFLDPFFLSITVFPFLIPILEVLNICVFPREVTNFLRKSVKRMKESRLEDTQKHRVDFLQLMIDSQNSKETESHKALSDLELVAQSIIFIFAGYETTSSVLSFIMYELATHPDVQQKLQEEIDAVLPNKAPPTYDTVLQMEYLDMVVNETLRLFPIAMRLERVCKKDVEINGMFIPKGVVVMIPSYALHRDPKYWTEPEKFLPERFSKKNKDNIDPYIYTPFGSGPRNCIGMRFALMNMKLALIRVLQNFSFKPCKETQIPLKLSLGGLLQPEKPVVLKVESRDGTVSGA

CNC(=O)Cc1ccc2ccn(C3CCN(CCc4ccccc4F)CC3)c2c1 [Compound 1, N-methyl-[1-[1-(2-fluorophenethyl)piperidine-4-yl]-1H-indol-6-yl] acetamide]
metabolism of Compound 1 by CYP2D6 (in words) (CYP2D6; [1]): metabolized | Rel. Amount (%) (CYP2D6; recombinant CYP2D6, estimated by UV absorbance at 270 nm, metabolite formed or Compound 1 left after 1 hour with NADPH): 78% | metabolism of Compound 1 by CYP3A4 (in words) (CYP3A4; [1]): metabolized | Rel. Amount (%) (CYP3A4; recombinant CYP3A4, estimated by UV absorbance at 270 nm, metabolite formed or Compound 1 left after 1 hour with NADPH): 23%
